{
  "source": "paper PMC10459042",
  "about": "“Synthesis of 1,2,3-Triazole-Containing Methoxylated Cinnamides and Their Antileishmanial Activity against the Leishmania braziliensis Species” (Pharmaceuticals, 2023)",
  "key": {"[1]": {"tested_on": "Leishmania braziliensis stationary promastigotes", "test": "In vitro antileishmanial activity against promastigotes (MTT)", "type": "cell-based", "description": "The study was approved by the Committee for the Ethical Handling of Research Animals from the Federal University of Minas Gerais (protocol number 085/2017). Leishmania braziliensis (MHOM/BR/1975/M2904) promastigotes were grown at 24 °C in Schneider’s medium (Sigma-Aldrich, USA) supplemented with 20% heat-inactivated fetal bovine serum (FBS, Sigma-Aldrich, USA) and 20 mmol/L L-glutamine at pH 7.4 [65].\n(§1) The in vitro antileishmanial activity was evaluated by incubating the promastigotes or axenic amastigotes (1 × 10^6 cells/well) with the 24 synthetic derivatives (Compounds 5–28; 0 to 600 µg/mL) in 96-well culture plates (Nunc, Nunclon, Roskilde, Denmark) for 48 h at 24 °C. Due to the difficulty in obtaining a high concentration of murine macrophages, the cytotoxicity experiment was evaluated by incubating such cells (5 × 10^5 per mL) with Compound 28 (0 to 600 µg/mL), which presented the best antileishmanial activity, for 48 h at 37 °C in a 5% CO2 environment. AmpB (0 to 10 µg/mL; Sigma-Aldrich, St. Louis, MO, USA) was used as a positive control in both experiments. The cell viability was assessed using the 3-(4.5-dimethylthiazol-2-yl)-2.5-diphenyl tetrazolium bromide (MTT, Sigma-Aldrich, St. Louis, MO, USA) method. The optical density (OD) values were read using a microplate spectrophotometer (Molecular Devices, Spectra Max Plus, San Jose, CA, USA) at 570 nm. Results were entered into Microsoft Excel (version 10.0) spreadsheets, and the 50% Leishmania and macrophage inhibitory concentrations (IC50 and CC50, respectively) were calculated by applying a sigmoidal regression of the dose–response curve. The SI was calculated by dividing the CC50 with the respective IC50 values."}, "[2]": {"tested_on": "Leishmania braziliensis axenic amastigotes", "test": "In vitro antileishmanial activity against axenic amastigotes (MTT)", "type": "cell-based", "description": "To obtain the axenic amastigotes, 1 × 10^9 stationary promastigotes were washed three times in sterile phosphate-buffered saline (PBS) and incubated in 5 mL FBS for 48 h at 37 °C. Parasites were washed with cold PBS, and their morphology was evaluated with an optical microscope after Giemsa staining as previously described.\nas §1"}, "[3]": {"test": "Cytotoxicity in mammalian cells (MTT)", "type": "cell-based", "details": "mouse; murine macrophages, 48 h at 37 °C in 5% CO2, MTT, mean ± standard deviation", "description": "as §1"}, "[4]": {"tested_on": "L. braziliensis promastigotes infecting murine macrophages", "test": "Inhibition of infection (parasites pre-incubated with compound, then used to infect macrophages)", "type": "cell-based, Leishmania braziliensis", "details": "for Number of Amastigotes per Cell using pre-incubated parasites: untreated 8.9; for Percentage of Infected Macrophages Using Pre-Incubated Parasites: untreated 90.5", "description": "To evaluate the inhibition of infection, promastigotes (5 × 10^6 cells) were first incubated with Compound 28 or AmpB (0, 1.0, 2.5 and 5.0 µg/mL in both cases) for 4 h at 24 °C; these were then used to infect murine macrophages (at a ratio of 10 parasites per macrophage) and incubated for 24 h at 37 °C in 5% CO2. Then, cells were fixed with 4% paraformaldehyde, washed, and stained with Giemsa. The percentage of infected macrophages and the number of recovered amastigotes were determined by counting 200 cells, in triplicate, using an optical microscope."}, "[5]": {"tested_on": "Leishmania braziliensis promastigotes", "test": "Depolarization of mitochondrial membrane potential (ΔΨm), JC-1", "type": "cell-based", "details": "one IC50 value, 48 h at 24 °C; non-treated parasites 7.2", "description": "Leishmania braziliensis promastigotes (1 × 10^7 cells/mL) were treated with compound 28 (at a concentration corresponding to one IC50 value) for 48 h at 24 °C. The parasites (3 × 10^6 cells/mL) were then labeled with JC-1 (5 µg/mL, Sigma-Aldrich, St. Louis, MO, USA) for 30 min at 37 °C. After washing twice with PBS to remove the non-internalized dye, the samples were added to a black 96-well plate, and the ΔΨm was analyzed in a spectrofluorometer (FLx800, BioTek Instruments, Winooski, VT, USA) with an excitation filter of 485 nm and emission wavelength of 528 nm and […] to measure the green and red fluorescence, respectively. The ΔΨm was determined using the ratio between the red/green fluorescence intensity. Parasites that were exposed to 1.3 µg/mL (5.0 µmol/L) of FCCP (Sigma-Aldrich, St. Louis, MO, USA) for 20 min were used as a control. […]\nFigure 4 ΔΨm and ROS production in Leishmania after exposure to Compound 28. […] (A) Depolarization of ΔΨm was evaluated using the JC-1 fluorescent probe. Samples were analyzed fluorometrically, and the results are expressed as the ratio of red/green fluorescence. […] (B) ROS production was evaluated using the H2DCFDA probe. The fluorescence intensity was measured by fluorimetry, and the results are expressed as the fold increase in the ROS level compared with the non-treated control. […]"}, "[6]": {"tested_on": "L. braziliensis promastigotes", "test": "ROS production in promastigotes (H2DCFDA)", "type": "cell-based, Leishmania braziliensis", "details": "one IC50 value, 48 h at 24 °C", "description": "After treatment with Compound 28 (at a concentration corresponding to one IC50 value) for 48 h at 24 °C, L. braziliensis promastigotes were washed with PBS, and the parasite concentration was adjusted to 3 × 10^6 cells per well. H2DCFDA (Sigma-Aldrich, St. Louis, MO, USA) was then added and incubated for 30 min in the dark, and samples were read in a fluorometric microplate reader (FLx800, BioTek Instruments, Winooski, VT, USA) with excitation and emission wavelengths of 485 and 528 nm, respectively. Parasites that were untreated or treated with Compound 28 and not labeled with the fluorescent probe were used as the blank.\nFigure 4 ΔΨm and ROS production in Leishmania after exposure to Compound 28. Leishmania braziliensis promastigotes were not exposed (negative control) or exposed to Compound 28 (at a concentration corresponding to the IC50 value) for 48 h. (A) Depolarization of ΔΨm was evaluated using the JC-1 fluorescent probe. Samples were analyzed fluorometrically, and the results are expressed as the ratio of red/green fluorescence. FCCP ([…]) was used as a positive control. (B) ROS production was evaluated using the H2DCFDA probe. The fluorescence intensity was measured by fluorimetry, and the results are expressed as the fold increase in the ROS level compared with the non-treated control. H2O2-treated parasites were used as a positive control. […]"}, "[7]": {"details": "parasites pre-incubated with 1.0 µg/mL at 24 °C"}, "[8]": {"details": "parasites pre-incubated with 2.5 µg/mL at 24 °C"}, "[9]": {"details": "parasites pre-incubated with 5.0 µg/mL at 24 °C"}},
  "data": [
    {"smiles": "CCN(CC)c1ccc2cc(-n3cc(CNC(=O)/C=C/c4ccc(OC)c(OC)c4)nn3)c(=O)oc2c1", "note": "[Compound 28, N-((1-(7-(diethylamino)-2-oxo-2H-chromen-3-yl)-1H-1,2,3-triazol-4-yl)methyl) (3,4-dimethoxy) cinnamide]", "values": [
      {"measurement": "Selectivity index (SI), ratio CC50/IC50, promastigotes", "setting": "[1]; CC50 murine macrophages / IC50 promastigotes", "result": 11.1},
      {"measurement": "IC50", "setting": "[1]; Leishmania braziliensis, 48 h at 24 °C, MTT, mean ± standard deviation", "result": "106 ± 16.7", "unit": "µg/mL"},
      {"measurement": "IC50 Axenic Amastigotes", "setting": "[2]; 48 h at 24 °C, MTT, mean ± standard deviation", "result": "87.8 ± 9.7", "unit": "µg/mL"},
      {"measurement": "Selectivity index (SI), ratio CC50/IC50, axenic amastigotes", "setting": "[2]; CC50 murine macrophages / IC50 axenic amastigotes", "result": 13.3},
      {"measurement": "IC50", "setting": "[2]; Leishmania braziliensis, 48 h, 48 h at 24 °C, MTT, mean ± standard deviation", "result": "88 ± 9.7", "unit": "µg/mL"},
      {"measurement": "CC50 at 48 h", "setting": "[3]", "result": "> 600", "unit": "µg/mL"},
      {"measurement": "Number of Amastigotes per Cell using pre-incubated parasites", "setting": "[4]; [7]", "result": 5.8},
      {"measurement": "Percentage of Infected Macrophages Using Pre-Incubated Parasites", "setting": "[4]; [7]", "result": 84.5, "unit": "%"},
      {"measurement": "Number of Amastigotes per Cell using pre-incubated parasites", "setting": "[4]; [8]", "result": 4.9},
      {"measurement": "Percentage of Infected Macrophages Using Pre-Incubated Parasites", "setting": "[4]; [8]", "result": 80.5, "unit": "%"},
      {"measurement": "Number of Amastigotes per Cell using pre-incubated parasites", "setting": "[4]; [9]", "result": 3.6},
      {"measurement": "Percentage of Infected Macrophages Using Pre-Incubated Parasites", "setting": "[4]; [9]", "result": 71.5, "unit": "%"},
      {"measurement": "ΔΨm, JC-1 ratio of red/green fluorescence", "setting": "[5]", "result": 4.0},
      {"measurement": "Fold increase in ROS production compared with untreated parasites", "setting": "[6]", "result": 2.5, "unit": "fold"},
      {"measurement": "melting point", "result": "197 to 198.4", "unit": "°C"}
    ]}
  ]
}
